In ChEMBL document CHEMBL1152872, “Discovery of N-{[1-(propylsulfonyl)-4-pyridin-2-ylpiperidin-4-yl]methyl}benzamides as novel, selective and potent GlyT1 inhibitors” (Bioorg Med Chem Lett, 2009):

Experiments:
[1] = target: T1, Sodium- and chloride-dependent glycine transporter 1 (Homo sapiens, UniProt P48067); experiment: Inhibition of human glycine transporter 1
T1 sequence (P48067 whole entry): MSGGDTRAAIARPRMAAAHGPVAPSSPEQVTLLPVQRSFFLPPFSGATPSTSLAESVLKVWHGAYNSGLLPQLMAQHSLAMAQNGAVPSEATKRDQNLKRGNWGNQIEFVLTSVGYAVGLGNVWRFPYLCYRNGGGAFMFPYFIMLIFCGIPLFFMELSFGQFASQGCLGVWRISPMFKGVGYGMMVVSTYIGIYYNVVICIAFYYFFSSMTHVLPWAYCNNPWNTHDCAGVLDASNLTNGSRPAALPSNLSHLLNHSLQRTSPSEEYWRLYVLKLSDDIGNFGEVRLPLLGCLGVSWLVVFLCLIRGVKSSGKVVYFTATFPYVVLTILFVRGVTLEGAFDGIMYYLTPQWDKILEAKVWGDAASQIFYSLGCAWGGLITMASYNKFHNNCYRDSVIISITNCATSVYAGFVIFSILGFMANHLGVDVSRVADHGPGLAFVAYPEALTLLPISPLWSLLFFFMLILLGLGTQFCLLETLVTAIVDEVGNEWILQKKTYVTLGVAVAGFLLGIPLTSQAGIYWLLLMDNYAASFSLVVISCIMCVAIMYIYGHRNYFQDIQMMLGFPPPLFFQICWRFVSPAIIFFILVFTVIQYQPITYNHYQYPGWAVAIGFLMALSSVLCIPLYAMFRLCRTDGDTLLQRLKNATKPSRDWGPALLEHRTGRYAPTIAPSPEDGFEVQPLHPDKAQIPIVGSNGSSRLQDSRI

[2] = target: T2, Sodium- and chloride-dependent glycine transporter 2 (Homo sapiens, UniProt Q9Y345); experiment: Inhibition of glycine transporter 2
T2 sequence (Q9Y345 whole entry): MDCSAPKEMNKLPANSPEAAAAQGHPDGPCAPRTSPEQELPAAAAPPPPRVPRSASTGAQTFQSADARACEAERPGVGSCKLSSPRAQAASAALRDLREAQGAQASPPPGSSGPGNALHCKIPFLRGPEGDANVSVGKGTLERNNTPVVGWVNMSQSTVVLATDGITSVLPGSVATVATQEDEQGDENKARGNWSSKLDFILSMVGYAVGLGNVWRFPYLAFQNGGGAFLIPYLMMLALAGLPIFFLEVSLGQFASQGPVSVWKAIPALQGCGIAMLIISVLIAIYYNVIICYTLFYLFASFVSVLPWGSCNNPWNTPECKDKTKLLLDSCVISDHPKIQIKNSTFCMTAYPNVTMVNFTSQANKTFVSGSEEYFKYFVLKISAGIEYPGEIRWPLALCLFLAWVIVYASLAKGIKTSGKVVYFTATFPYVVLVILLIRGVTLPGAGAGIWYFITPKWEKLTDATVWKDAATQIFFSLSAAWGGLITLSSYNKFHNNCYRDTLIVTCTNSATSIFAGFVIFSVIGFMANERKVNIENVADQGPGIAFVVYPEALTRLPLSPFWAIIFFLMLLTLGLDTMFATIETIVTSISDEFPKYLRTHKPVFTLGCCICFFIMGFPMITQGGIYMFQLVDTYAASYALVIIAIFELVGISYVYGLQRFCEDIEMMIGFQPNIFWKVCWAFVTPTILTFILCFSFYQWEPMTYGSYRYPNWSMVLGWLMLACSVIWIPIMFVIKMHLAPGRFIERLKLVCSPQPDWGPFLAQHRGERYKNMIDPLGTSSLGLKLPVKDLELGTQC

[3] = target: T3, Sodium- and chloride-dependent taurine transporter (Homo sapiens, UniProt P31641); experiment: Inhibition of taurine transporter; assay type: single protein
T3 sequence (P31641 whole entry): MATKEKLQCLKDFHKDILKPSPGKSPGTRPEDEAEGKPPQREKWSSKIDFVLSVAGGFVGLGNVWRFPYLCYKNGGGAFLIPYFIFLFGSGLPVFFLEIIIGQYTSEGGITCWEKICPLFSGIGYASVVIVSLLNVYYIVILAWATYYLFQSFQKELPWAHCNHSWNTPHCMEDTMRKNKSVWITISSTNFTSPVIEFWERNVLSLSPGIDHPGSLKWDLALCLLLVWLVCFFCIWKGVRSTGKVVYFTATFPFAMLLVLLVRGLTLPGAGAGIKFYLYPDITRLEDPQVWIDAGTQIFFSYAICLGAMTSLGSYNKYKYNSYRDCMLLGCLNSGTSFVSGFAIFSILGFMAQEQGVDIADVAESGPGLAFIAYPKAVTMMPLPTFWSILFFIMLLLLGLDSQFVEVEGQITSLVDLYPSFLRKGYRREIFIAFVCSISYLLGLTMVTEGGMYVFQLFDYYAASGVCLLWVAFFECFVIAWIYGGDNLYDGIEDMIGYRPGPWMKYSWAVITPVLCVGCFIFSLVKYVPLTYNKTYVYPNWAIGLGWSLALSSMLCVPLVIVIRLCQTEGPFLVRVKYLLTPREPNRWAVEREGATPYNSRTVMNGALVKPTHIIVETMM

[4] = Solubility in water; assay type: physicochemical
[5] = target: T1, Sodium- and chloride-dependent glycine transporter 1; experiment: Inhibition of glycine transporter 1 by HTS assay

Row | IC50 [1] | IC50 [2] | IC50 [3] | solubility [4] | IC50 [5] | Compound
1 | 58.9 nM | – | – | – | – | CCCS(=O)(=O)N1CCC(CNC(=O)c2ccccc2Cl)(C2CCCCN2C)CC1 (stereo unspecified)
2 | 17.7 nM | > 30000 nM | > 30000 nM | – | – | CCCS(=O)(=O)N1CCC(c2ccccn2)([C@H](C)NC(=O)c2ccccc2OC(F)(F)F)CC1
3 | 107 nM | > 30000 nM | > 30000 nM | – | – | CCCS(=O)(=O)N1CCC(CNC(=O)c2ccccc2)(c2ccccn2)CC1
4 | 19.4 nM | > 30000 nM | > 30000 nM | – | – | CCCS(=O)(=O)N1CCC(CNC(=O)c2ccccc2OC(F)(F)F)(c2ccccn2)CC1
5 | 482 nM | – | – | – | – | CCCS(=O)(=O)N1CCC(CNC(=O)c2ccccc2Cl)(c2cccc(N3CCOCC3)n2)CC1
6 | – | – | – | 850 µg/mL | – | CCCS(=O)(=O)N1CCC(CNC(=O)c2ccc(Cl)cc2Cl)(c2ccccn2)CC1.Cl
7 | 661 nM | – | – | – | – | CCCS(=O)(=O)N1CCC(c2ccccn2)([C@@H](C)NC(=O)c2ccc(Cl)cc2Cl)CC1
8 | 19.5 nM | > 30000 nM | > 30000 nM | – | – | CCCS(=O)(=O)N1CCC(CNC(=O)c2ccccc2C)(c2ccccn2)CC1
9 | 21.2 nM | – | – | – | – | CCCS(=O)(=O)N1CCC(CNC(=O)c2ccccc2OC(F)(F)F)(C2CCCCN2C)CC1 (stereo unspecified)
10 | – | – | – | – | 2.6 nM | CCCS(=O)(=O)N1CCC(c2ccccc2)([C@H](C)NC(=O)c2c(N)cccc2Cl)CC1
11 | 3.5 nM | > 30000 nM | > 30000 nM | – | – | CCCS(=O)(=O)N1CCC(CNC(=O)c2ccc(Cl)cc2Cl)(c2cc(C)ccn2)CC1
12 | 31.3 nM | > 30000 nM | > 30000 nM | – | – | CCCS(=O)(=O)N1CCC(CNC(=O)c2ccccc2C(F)(F)F)(c2ccccn2)CC1
13 | 7.4 nM | > 30000 nM | > 30000 nM | – | – | CCCS(=O)(=O)N1CCC(CNC(=O)c2ccc(Cl)cc2Cl)(c2cccc(OC)n2)CC1
14 | 3 nM | > 30000 nM | > 30000 nM | – | – | CCCS(=O)(=O)N1CCC(CNC(=O)c2ccccc2Cl)(c2cccc(C)n2)CC1
15 | 6.9 nM | > 30000 nM | > 30000 nM | – | – | CCCS(=O)(=O)N1CCC(CNC(=O)c2c(N)cccc2Cl)(c2ccccn2)CC1
16 | > 5000 nM | – | – | – | – | CCCS(=O)(=O)N1CCC(CNC(=O)c2ccccc2)(c2cccc(N3CCOCC3)n2)CC1
17 | 79.3 nM | – | – | – | – | CCCS(=O)(=O)N1CCC(CNC(=O)c2ccc(Cl)cc2Cl)(c2ccncc2)CC1
18 | 576 nM | – | – | – | – | CCCS(=O)(=O)N1CCC(c2ccccn2)([C@@H](C)NC(=O)c2cc(F)cc(F)c2Cl)CC1
19 | 9.5 nM | – | – | – | – | CCCS(=O)(=O)N1CCC(CNC(=O)c2ccc(Cl)cc2Cl)(C2CCCCN2C)CC1 (stereo unspecified)
20 | 3 nM | > 30000 nM | > 30000 nM | – | – | CCCS(=O)(=O)N1CCC(c2ccccn2)([C@H](C)NC(=O)c2ccc(Cl)cc2Cl)CC1
21 | 4 nM | > 30000 nM | > 30000 nM | – | – | CCCS(=O)(=O)N1CCC(c2ccccn2)([C@H](C)NC(=O)c2cc(F)cc(F)c2Cl)CC1
22 | 3310 nM | – | – | – | – | CCCS(=O)(=O)N1CCC(CNC(=O)c2ccccc2)(C2CCCCN2C)CC1 (stereo unspecified)

Row | IC50 [1] | IC50 [2] | IC50 [3] | solubility [4] | IC50 [5] | Compound
23 | 517 nM | > 30000 nM | > 30000 nM | – | – | CCCS(=O)(=O)N1CCC(CNC(=O)c2cccc(Cl)c2)(c2ccccn2)CC1
24 | 2.5 nM | > 30000 nM | > 30000 nM | – | – | CCCS(=O)(=O)N1CCC(CNC(=O)c2ccc(Cl)cc2Cl)(c2cccc(C)n2)CC1
25 | 69.3 nM | – | – | – | – | CCCS(=O)(=O)N1CCC(CNC(=O)c2ccc(Cl)cc2Cl)(c2cccnc2)CC1
26 | – | – | – | – | 130 nM | CCCS(=O)(=O)N1CCC(CNC(=O)c2ccccc2OC)(c2ccccc2)CC1
27 | 2590 nM | – | – | – | – | CCCS(=O)(=O)N1CCC(c2ccccn2)([C@@H](C)NC(=O)c2ccccc2OC(F)(F)F)CC1
28 | 148 nM | – | – | – | – | CCCS(=O)(=O)N1CCC(CNC(=O)c2ccccc2C)(C2CCCCN2C)CC1 (stereo unspecified)
29 | 54.7 nM | > 30000 nM | > 30000 nM | – | – | CCCS(=O)(=O)N1CCC(CNC(=O)c2ccccc2)(c2cccc(C)n2)CC1
30 | 103 nM | > 30000 nM | > 30000 nM | – | – | CCCS(=O)(=O)N1CCC(CNC(=O)c2ccc(Cl)cc2)(c2ccccn2)CC1
31 | 4.4 nM | > 30000 nM | > 30000 nM | – | – | CCCS(=O)(=O)N1CCC(CNC(=O)c2ccc(Cl)cc2Cl)(c2ccccn2)CC1
32 | 49.4 nM | > 30000 nM | > 30000 nM | – | – | CCCS(=O)(=O)N1CCC(CNC(=O)c2ccccc2F)(c2ccccn2)CC1
33 | 129 nM | > 30000 nM | > 30000 nM | – | – | CCCS(=O)(=O)N1CCC(CNC(=O)c2ccccc2)(c2cc(C)ccn2)CC1
34 | 833 nM | > 30000 nM | > 30000 nM | – | – | CCCS(=O)(=O)N1CCC(CNC(=O)c2cccc(C)c2)(c2ccccn2)CC1
35 | 11.9 nM | > 30000 nM | > 30000 nM | – | – | CCCS(=O)(=O)N1CCC(CNC(=O)c2ccccc2Cl)(c2ccccn2)CC1
36 | 412 nM | – | – | – | – | CCCS(=O)(=O)N1CCC(CNC(=O)c2ccc(Cl)cc2Cl)(c2cccc(N3CCOCC3)n2)CC1
37 | 43.1 nM | – | – | – | – | CCCS(=O)(=O)N1CCC(CNC(=O)c2cc(F)cc(F)c2Cl)(C2CCCCN2C)CC1 (stereo unspecified)
38 | 5.7 nM | > 30000 nM | > 30000 nM | – | – | CCCS(=O)(=O)N1CCC(CNC(=O)c2c(F)ccc(F)c2Cl)(c2ccccn2)CC1
39 | 48.3 nM | > 30000 nM | > 30000 nM | – | – | CCCS(=O)(=O)N1CCC(CNC(=O)c2ccccc2)(c2cccc(OC)n2)CC1
40 | 6.9 nM | > 30000 nM | > 30000 nM | – | – | CCCS(=O)(=O)N1CCC(CNC(=O)c2ccccc2Cl)(c2cccc(OC)n2)CC1
41 | – | – | – | 570 µg/mL | – | CCCS(=O)(=O)N1CCC(CNC(=O)c2c(Cl)ccc(Cl)c2F)(c2ccccn2)CC1.Cl
42 | 131 nM | > 30000 nM | > 30000 nM | – | – | CCCS(=O)(=O)N1CCC(CNC(=O)c2ccc(Cl)c(Cl)c2)(c2ccccn2)CC1
43 | 38.3 nM | > 30000 nM | > 30000 nM | – | – | CCCS(=O)(=O)N1CCC(CNC(=O)c2ccccc2Cl)(c2cc(C)ccn2)CC1
44 | 6.6 nM | > 30000 nM | > 30000 nM | – | – | CCCS(=O)(=O)N1CCC(CNC(=O)c2c(Cl)cccc2Cl)(c2ccccn2)CC1
